Test results reported in US20110319351A1 (priority 2006, published 2011).
Several values for one entry are separate records, joined by “and”; a condition that tells them apart may be missing. Equal values may be shown once. Entries after “also recorded” stand apart in the source; their conditions may differ. Read-outs that look alike come from different tables or passages of the source.

Tests used:
PBMC = experiment: Apoptosis after PHA stimulation, PBMC; format: cell-based, human; conditions: PHA 1 μg/mL, digoxin 10 nM-100 nM, 48 h
Description: (§1) Tumor cell lines (5×10^5 cells/well) and PBMC (1×10^6 cells/well) were cultured in 24-well plates in the presence or absence of various concentrations of digoxin or ouabain for 48 h. The cells were harvested, washed twice in PBS, and analyzed for induction of apoptosis by annexin V-FITC/propidium iodide (PI) method (BD Bioscience, Lincoln Park, N.J.) according to the manufacturer's instructions. Cells were washed once with 1× binding buffer and stained with annexin V-FITC (5 μL) and PI (10 μL) for 15 minutes in the dark. Apoptosis was determined by flow cytometric analyses on a FACScan (BD Biosciences, Lincoln Park, N.J.). Ten thousand cells were analyzed per sample. In experiments where the effect of PHA was studied, cells were seeded accordingly in a 24-well plate and stimulated with PHA (1 μg/mL) for a minimum of 2 hours before treatment with the indicated concentrations of ouabain or digoxin. As a positive control for apoptosis, cells were exposed to ultra violet irradiation for […] and apoptosis was analyzed according to the method described above.

Jurkat cells [1] = experiment: Induction of apoptosis, annexin V-FITC/propidium iodide flow cytometry, Jurkat; format: cell-based, human; conditions: for IC50: Homo sapiens, Jurkat; for highest percentage of apoptosis / increase in apoptosis vs untreated control: Jurkat cells; for highest percentage of apoptosis: n=4; for increase in apoptosis vs untreated control: increasing concentration 10 nM-500 nM
Description: (§2) It was determined that the cardiac glycosides (e.g., digoxin and ouabain) selectively induce apoptosis in cancer cells relative to normal non-transformed cells. Through the experiments, some cells were exposed to ultraviolet irradiation as a positive control for induction of apoptosis, whereas cells cultured under normal conditions (95% […]/5% CO2 at 37° C.) acted as the negative control (see Methods). The percentage of counted cells in the lower and upper right hand quadrants are indicative of cells in early and late apoptosis, respectively. The viable cells are at the lower left quadrant. The figures that follow are summaries of data stemming from analysis of percent of cell count undergoing apoptosis as measured in FIG. 1.
(§3) Cell lines used in this study included: Jurkat E6-1, an acute human T-lymphoblastic leukemia cell line generated from a person; Daudi, a human B-lymphoblastoid line derived from Burkitt's lymphoma patient and K 562 derived from a human chronic myelogenous leukemia cell line. All cell lines were maintained in RPMI 1640 medium (Gibco Laboratories, Grand Island, N.Y.) supplemented with 10% fetal calf serum (FCS), 10 mM HEPES, 2 mM glutamine, 50 IU/mL penicillin, 50 μg/mL streptomycin, 0.1 mM non-essential amino acids and 1 mM sodium pyruvate and 0.5 μg/mL amphotericin B. Cells were cultured in a 5% CO2 atmosphere in a thermostatically maintained incubator (37° C.) in standard cell culture flasks. Cell cultures were split every 2-3 days and passage number noted.
as §1

[2] = test system: human lymphoblastic cell lines; experiment: Induction of apoptosis in the cancer cell lines (Jurkat and Daudi together); format: cell-based; conditions: read-out: concentration needed to induce a 50% apoptotic response
Description: as §1

Daudi cells = experiment: Induction of apoptosis, annexin V-FITC/propidium iodide flow cytometry, Daudi; format: cell-based, human; conditions: for highest percentage of apoptosis / increase in apoptosis vs untreated control: Daudi cells; for highest percentage of apoptosis: 500 nM, n=4; for increase in apoptosis vs untreated control: increasing concentration; for IC50: Homo sapiens, Daudi
Description: as §2, §3, §1

[3] = target: T1, porcine cerebral cortex Na,K-ATPase; format: biochemical
T1 construct: other: 50% response relative to the m
Source text: In the current study, the sensitivity of cardiac glycosides on induction of apoptosis in lymphoblastic cancer cells was examined. The efficacy of digoxin and ouabain in inducing apoptosis in these cell lines was compared with NKA catalytic inhibition activity using porcine cerebral cortex (Table 1). The porcine cerebral cortex (PCC) is a model system known to express the three isoforms of NKA consisting of the three different alpha subunits (α1, α2 and α3) (Rose et al., Clin Chem, 40, 1674-1685 (1994)). The alpha subunit of the NKA contains the binding site of the cardiac glycosides, and like most cationic transporter proteins, the beta subunit act as chaperon, stabilizing the correct assembly of the alpha subunit and facilitating the delivery of the protein to the plasma membrane (Blanco et al., Am J Physiol, 275 (Renal Physiol. 44), F633-F650 (1998)).
In order to compare the concentrations of digoxin or ouabain that affect the induction of apoptosis with those that inhibit the sodium pump, the inhibitory potency of digoxin and ouabain on porcine cerebral cortex (PCC) Na.,K-ATPase catalytic activity was examined.
The values were calculated as 50% response relative to the maximum NKA activity on the PCC or maximum apoptosis on Jurkat and Daudi cells within the concentration ranges tested.
Inhibition of sodium pump catalytic activity by cardiac glycosides was measured by the release of phosphate upon hydrolysis of ATP (Qazzaz et al., Endocrinology, 141, 3200-3209 (2000)).

[4] = test system: caspase-3 activity in K 562 cells; experiment: DEVD-dependent caspase-3 activity, K 562; format: cell-based, human; conditions: 100 nM, 12 h
Description: (§4) Measurement of DEVD-dependent caspase-3 activity is a measure of induction of apoptosis, irrespective of the apoptotic pathway activated. The effect of digoxin (100 nM) to induce activation of caspase-3 activity in these tumor cell lines and as well as normal PBMC was examined. Tumor cells (1×10^7 cell/mL) and PBMC (1×10^7 cells/mL) were exposed to ultraviolet irradiation or digoxin (100 nM) for 12 h. The cells were then analyzed for caspase-3 activation using caspase-3 activation assay kit following the manufacturer's instructions.
(§5) Caspase-3 activity was measured using a caspase-3 assay kit (Sigma-Aldrich Co. St Louis, Mo.). Briefly, tumor cell lines (1×10^7 cells/mL), and PBMC (1×10^7 cells/mL) were cultured in the presence or absence of the indicated concentration of digoxin. Cells were harvested by centrifugation and washed once with PBS. Cells were lysed with lysis buffer (30 mM Tris-HCl, pH 7.5, 150 mM NaCl, 1% Triton X-100, and 10% glycerol) and were centrifuged to remove cell debris, Caspase 3 activity was assayed in the cell lysate according to the manufacturer's instructions. The colorimetric assay is based on spectrophotometric detection of chromophore pNA at 405 nm after cleavage from labelled substrate DEVD-pNA. The level of caspase 3 activity is interpolated from a calibration curve.

Jurkat cells [5] = experiment: Apoptosis after PHA stimulation, Jurkat; format: cell-based, human; conditions: PHA 1 μg/mL, digoxin 10 nM and 100 nM, 48 h
Description: as §1

[6] = test system: caspase-3 activity in PBMC; experiment: DEVD-dependent caspase-3 activity, PBMC; format: cell-based, human; conditions: 100 nM, 12 h
Description: as §4, §5

[7] = Kometiani et al. 2005; cited from earlier work
[8] = test system: caspase-3 activity in Daudi cells; experiment: DEVD-dependent caspase-3 activity, Daudi; format: cell-based, human; conditions: 100 nM, 12 h
Description: as §4, §5

[9] = test system: caspase-3 activity in Jurkat cells; experiment: DEVD-dependent caspase-3 activity, Jurkat; format: cell-based, human; conditions: 100 nM, 12 h
Description: as §4, §5

K 562 cells = experiment: Induction of apoptosis, annexin V-FITC/propidium iodide flow cytometry, K 562; format: cell-based, human; conditions: increasing concentrations, 48 h
Description: as §2, with “1. […]” for “1.”
(§6) Tumor cell lines (5×10^5 cells/well) and PBMC (1×10^6 cells/well) were cultured in 24-well plates in the presence or absence of various concentrations of digoxin or ouabain for 48 h. The cells were harvested, washed twice in PBS, and analyzed for induction of apoptosis by annexin V-FITC/propidium iodide (PI) method (BD Bioscience, Lincoln Park, N.J.) according to the manufacturer's instructions. […] Apoptosis was determined by flow cytometric analyses on a FACScan (BD Biosciences, Lincoln Park, N.J.). Ten thousand cells were analyzed per sample. […]

[10] = test system: peripheral blood mononuclear cells (PBMC); experiment: Induction of apoptosis, annexin V-FITC/propidium iodide flow cytometry, PBMC; format: cell-based, human; conditions: increasing concentration, 48 h
Description: as §2, with “1. […]” for “1.”
as §6

[11] = 50% response relative to maximum apoptosis within the concentration ranges tested, 48 h, read-out: IC50, Induction of apoptosis on acute T-cell lymphoblastic leukemic cells (Jurkat)
[12] = range of the IC50, read-out: Ranges of IC50, Induction of apoptosis on Jurkat
[13] = 50% response relative to the maximum NKA activity on the PCC, read-out: IC50, Inhibitory Potency on Porcine cerebral cortex (PCC) NKA catalytic activity
[14] = range of the IC50, read-out: Range of IC50, Inhibitory Potency on PCC NKA catalytic activity

Row | Compound | IC50 (Jurkat cells [1]; [11]) [nM] | IC50 (Jurkat cells [1]; [12]) [nM] | increase in apoptosis vs untreated control (Jurkat cells [1]; 48 h) | highest percentage of apoptosis (Daudi cells; 48 h) | increase in apoptosis vs untreated control (Daudi cells; 48 h) | IC50 [3, 13] [nM] | IC50 [3, 14] [nM] | increase in apoptosis vs untreated control (K 562 cells) | increase in apoptosis vs untreated control [10] | further results
1 | C[C@H]1O[C@@H](O[C@H]2[C@@H](O)C[C@H](O[C@H]3[C@@H](O)C[C@H](O[C@H]4CC[C@@]5(C)[C@H](CC[C@@H]6[C@@H]5C[C@@H](O)[C@]5(C)[C@@H](C7=CC(=O)OC7)CC[C@]65O)C4)O[C@@H]3C)O[C@@H]2C)C[C@H](O)[C@@H]1O [Digoxin, digoxin] | 24 | 11 to 56 | significantly (P<0.05) led to increases in apoptosis | 83.2±7.3% and 83.2%±7.3% | significantly (P<0.05) led to increase in apoptosis | 910 | 820 to 1010 | neither digoxin nor ouabain significantly induced apoptosis; also recorded: did not significantly (P>0.05) lead to increases in apoptosis | neither digoxin nor ouabain significantly induced apoptosis; also recorded: did not significantly (P>0.05) lead to increase in apoptosis | percent of apoptosis in the presence of PHA (PBMC): No such effect; percent of apoptosis in the presence of PHA (PBMC; listed as digoxin): No such synergistic effect; also recorded: no such synergistic increase; highest percentage of apoptosis (Jurkat cells [1]; 500 nM, 48 h): 50.2±4.5% and 50.2%±4.5%; EC50 [2]: 20 to 40 nM; IC50 (Daudi cells; 48 h, read-out: IC50, Induction of apoptosis on B-cell Burkitt's lymphoma cells (Daudi)): 48 nM; IC50 (Daudi cells; read-out: Ranges of IC50, Induction of apoptosis on Daudi): 35 to 65 nM; caspase-3 activity relative to the untreated controls [4]: no such increases; percent of apoptosis in the presence of PHA (Jurkat cells [5]): synergistically increased; percent of apoptosis in the presence of PHA (Jurkat cells [5]; listed as digoxin): synergistically induced apoptosis; also recorded: synergistically increased; caspase-3 activity relative to the untreated controls [6]: no such increases; therapeutic concentrations in blood [7]: approximately 2 nM; caspase-3 activity relative to the untreated controls [8]: 7 fold; caspase-3 activity relative to the untreated controls [9]: 8 fold
2 | C[C@@H]1O[C@@H](O[C@H]2C[C@@H](O)[C@]3(CO)[C@H]4[C@H](O)C[C@]5(C)[C@@H](C6=CC(=O)OC6)CC[C@]5(O)[C@@H]4CC[C@]3(O)C2)[C@H](O)[C@H](O)[C@H]1O [Ouabain, ouabain] | 26 | 19 to 48 | significantly (P<0.05) led to increases in apoptosis | 81.1±6.1% | significantly (P<0.05) led to increase in apoptosis | 600 | 550 to 650 | neither digoxin nor ouabain significantly induced apoptosis; also recorded: did not significantly (P>0.05) lead to increases in apoptosis | neither digoxin nor ouabain significantly induced apoptosis; also recorded: did not significantly (P>0.05) lead to increase in apoptosis | highest percentage of apoptosis (Jurkat cells [1]; 100 nM, 48 h): 47.6±3.9% and 47.6±5.6%; EC50 ([2]; based on the maximum apoptosis at 500 nM, for each of the cancer cell lines): 20 to 40 nM; IC50 (Daudi cells; 50% response relative to maximum apoptosis within the concentration ranges tested, 48 h, read-out: IC50, Induction of apoptosis on B-cell Burkitt's lymphoma cells (Daudi)): 40 nM; IC50 (Daudi cells; range of the IC50, read-out: Ranges of IC50, Induction of apoptosis on Daudi): 36 to 56 nM
